Test results reported in patent publication US7713926B2, “Method of producing partial peptide of enolase protein from Plasmodium falciparum” (National University Corporation Gunma University, priority 2004, dated 2010).

System: antibodies existing in sera from Plasmodium falciparum malaria patients and non-infected individuals
Assay: Fluorescent ELISA of human sera on plate-fixed peptide compound (antibody level)
Format: binding
Details: peptide fixed on plastic plate as antigen
Protocol: An antigen solution was prepared by dissolving 500 μg of the peptide compound (SEQ ID NO: 13) synthesized in Example 10 in 100 μl of dimethyl sulfoxide and by subsequently adding 1900 μl of a 0.05 M carbonate buffer (pH 9.6). The prepared antigen solution was dispensed by […] in each of […] on a plastic plate for fixation of the peptide compound.
The sera collected from Plasmodium falciparum malaria patients under informed consent at hospitals in Japan were used as subject sera, and the sera collected from non-infected individuals under informed consent in Japan were used as control sera. The subject sera and the control sera were individually added to the wells on the plastic plate to allow the antibodies existing in the respective sera to react with the peptide compound (SEQ ID NO: 13).
After removal of the serum, an enzyme-labeled secondary antibody against human immunoglobulin was added to each well for the immunological reaction. […] The measured antibody levels were expressed by relative fluorescence unit (RFU values).
FIG. 7 is a graph showing antibody levels of sera (1-7) from Plasmodium falciparum-infected patients and those of sera (8-12) from non-infected individuals (for the purpose of comparison) measured by the fluorescent ELISA method with the synthesized peptide compound (SEQ ID NO: 13). […]

In the case of “H-Glu-Glu-Glu-Glu-Ala-Ser-Glu-Phe-Tyr-Asn-Ser-Glu-Asn-Lys-Thr-Tyr-Asp-Leu-Asp-Phe-Lys-Thr-Pro-Asn-Asn-Asp-Gly-Gly-OH (H-EEEEASEFYNSENKTYDLDFKTPNNDGG-OH) [SEQ ID NO: 13, partial peptide of enolase from Plasmodium falciparum, used as ELISA antigen]”, the “average antibody level of the non-infected individuals” value (control sera (8-12) from non-infected individuals, same fluorescent ELISA) is reported as 67 RFU and the “average antibody level of the malaria patients” value (sera (1-7) from Plasmodium falciparum-infected patients, enzyme-labeled secondary antibody against human immunoglobulin, 4-methylumbelliferyl phosphate) is reported as 181 RFU.
